Results taken from patent US11214594B2, “Antimicrobial peptide having synergistic antibacterial effect with antibiotics on multidrug resistant bacteria, and use thereof” (priority 2016, dated 2022).
Like-named read-outs stand apart in the source and are kept apart here. Where a SMILES comes first, the peptide text is derived from it. [ ]: non-standard residue; d: D form.

Experiments:
MDRAB 12035 [1] = assay: MIC of antibiotic during combined treatment with antimicrobial peptide; format: cell-based, Acinetobacter baumannii
Description: (§1) Specifically, the strains described in [Table 2] were prepared and diluted with an MH medium such that the number of bacteria was 2×10^6 colony-forming units (CFUs) per 1 ml, 100 μl of the diluted strains was each aliquoted into a 96-well microtiter plate, and then 50 μl of a peptide solution diluted with the MH medium from the MIC value (solution diluted stepwise at 2: 1) was added to each well. Thereafter, the MIC value of each mixed solution was determined by diluting the antibiotic solution with the MH medium, adding 50 μl of the diluted solution to each well, and performing an experiment even under a reversed condition.

E. coli = format: cell-based, Escherichia coli; settings: E. coli
Description: as §1

MDREC 1229 = format: cell-based, Escherichia coli
Description: as §1

A. baumannii = assay: MIC of antimicrobial peptide during combined treatment with antibiotic; format: cell-based, Acinetobacter baumannii
How it was run: (§2)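 Antibiotic MIC came from antibiotic dilutions added to bacteria (2×10^6 CFU/ml, MH medium) already combined with peptide serially diluted 2:1 from its own MIC. Swapping the roles of the two agents gave the peptide MIC.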

MDRAB 12035 [2] = assay: as above; format: cell-based, Acinetobacter baumannii
How it was run: as §2

[3] = peptide treatment concentration 8 μg/ml
[4] = peptide treatment concentration 16 μg/ml
[5] = peptide treatment concentration 32 μg/ml
[6] = peptide treatment concentration 64 μg/ml
[7] = linezolid 64 μg/ml (Conc./MIC 1/8)
[8] = linezolid 512 μg/ml (Conc./MIC 1)
[9] = vancomycin 512 μg/ml (Conc./MIC 1/2)
[10] = vancomycin 1024 μg/ml (Conc./MIC 1)
[11] = erythromycin 4 μg/ml (Conc./MIC 1/8)
[12] = erythromycin 8 μg/ml (Conc./MIC 1/4)
[13] = erythromycin 16 μg/ml (Conc./MIC 1/2)
[14] = erythromycin 32 μg/ml (Conc./MIC 1)

Structure (SMILES): CC[C@H](C)[C@H](NC(=O)[C@H](CCCCN)NC(=O)[C@H](Cc1c[nH]c2ccccc12)NC(=O)[C@@H](N)CCCNC(=N)N)C(=O)N[C@@H](Cc1ccccc1)C(=O)N[C@@H](CCCCN)C(=O)N[C@@H](CCCCN)C(=O)N[C@H](C(=O)N[C@H](CC(C)C)C(=O)N[C@@H](CCCCN)C(=O)N[C@@H](CC(C)C)C(=O)N[C@@H](CC(C)C)C(=O)N[C@@H](Cc1c[nH]cn1)C(=O)N[C@@H](CCC(=O)O)C(=O)N[C@@H](C)C(=O)N[C@@H](CCCCN)C(=O)N[C@@H](CCCCN)C(=O)N[C@@H](Cc1c[nH]c2ccccc12)C(N)=O)[C@@H](C)CC [PapMA-24, RWK IFK KIl KLL HEA KKW-NH2] (H-RWKIFKKI[dL]KLLHEAKKW-NH2; N-terminus assumed)
- Erythromycin MIC during combined treatment with peptide (MDRAB 12035 [1]; [3]): 1 µg/mL
- Linezolid MIC during combined treatment with peptide (MDRAB 12035 [1]; [3]): 8 µg/mL
- Vancomycin MIC during combined treatment with peptide (MDRAB 12035 [1]; [3]): 16 µg/mL
- Erythromycin MIC during combined treatment with peptide (MDRAB 12035 [1]; [4]): 0.25 µg/mL
- Linezolid MIC during combined treatment with peptide (MDRAB 12035 [1]; [4]): 4 µg/mL
- Vancomycin MIC during combined treatment with peptide (MDRAB 12035 [1]; [4]): 8 µg/mL
- Erythromycin MIC during combined treatment with peptide (MDRAB 12035 [1]; [5]): 0 µg/mL
- Linezolid MIC during combined treatment with peptide (MDRAB 12035 [1]; [5]): 0 µg/mL
- Vancomycin MIC during combined treatment with peptide (MDRAB 12035 [1]; [5]): 0 µg/mL
- Erythromycin MIC during combined treatment with peptide (MDRAB 12035 [1]; [6]): 0 µg/mL
- Linezolid MIC during combined treatment with peptide (MDRAB 12035 [1]; [6]): 0 µg/mL
- Vancomycin MIC during combined treatment with peptide (MDRAB 12035 [1]; [6]): 0 µg/mL
- Peptide MIC (E. coli; with Erythromycin […] (Conc./MIC 1)): 0 µg/mL
- Peptide MIC (E. coli; with Linezolid […] (Conc./MIC 1)): 0 µg/mL
- Peptide MIC (E. coli; with Vancomycin 1024 μg/ml (Conc./MIC 1)): 0 µg/mL
- Peptide MIC during treatment with antibiotic (MDREC 1229; erythromycin 32 μg/ml (Conc./MIC 1/8)): 4 µg/mL
- Peptide MIC during treatment with antibiotic (MDREC 1229; erythromycin 64 μg/ml (Conc./MIC 1/4)): 2 µg/mL
- Peptide MIC during treatment with antibiotic (MDREC 1229; erythromycin […] (Conc./MIC 1)): 0 µg/mL
- Peptide MIC during treatment with antibiotic (MDREC 1229; erythromycin […] (Conc./MIC 1/2)): 1 µg/mL
- Peptide MIC during treatment with antibiotic (MDREC 1229; [7]): 4 µg/mL
- Peptide MIC during treatment with antibiotic (MDREC 1229; [8]): 0 µg/mL
- Peptide MIC during treatment with antibiotic (MDREC 1229; linezolid […] (Conc./MIC 1/2)): 1 µg/mL
- Peptide MIC during treatment with antibiotic (MDREC 1229; linezolid […] (Conc./MIC 1/4)): 2 µg/mL
- Peptide MIC during treatment with antibiotic (MDREC 1229; [9]): 2 µg/mL
- Peptide MIC during treatment with antibiotic (MDREC 1229; [10]): 1 µg/mL
- Peptide MIC during treatment with antibiotic (MDREC 1229; vancomycin […] (Conc./MIC 1/4)): 4 µg/mL
- Peptide MIC during treatment with antibiotic (MDREC 1229; vancomycin […] (Conc./MIC 1/8)): 8 µg/mL
- Peptide MIC during treatment with erythromycin (A. baumannii; [11]): 8 µg/mL
- Peptide MIC during treatment with erythromycin (A. baumannii; [12]): 4 µg/mL
- Peptide MIC during treatment with erythromycin (A. baumannii; [13]): 4 µg/mL
- Peptide MIC during treatment with erythromycin (A. baumannii; [14]): 0 µg/mL
- Peptide MIC during treatment with linezolid (A. baumannii; linezolid 32 μg/ml (Conc./MIC 1/8)): 8 µg/mL
- Peptide MIC during treatment with linezolid (A. baumannii; linezolid 64 μg/ml (Conc./MIC 1/4)): 4 µg/mL
- Peptide MIC during treatment with linezolid (A. baumannii; linezolid […] (Conc./MIC 1)): 0 µg/mL
- Peptide MIC during treatment with linezolid (A. baumannii; linezolid […] (Conc./MIC 1/2)): 1 µg/mL
- Peptide MIC during treatment with vancomycin (A. baumannii; [9]): 0.25 µg/mL
- Peptide MIC during treatment with vancomycin (A. baumannii; [10]): 0 µg/mL
- Peptide MIC during treatment with vancomycin (A. baumannii; vancomycin […] (Conc./MIC 1/4)): 0.5 µg/mL
- Peptide MIC during treatment with vancomycin (A. baumannii; vancomycin […] (Conc./MIC 1/8)): 2 µg/mL
- Peptide MIC during treatment with erythromycin (MDRAB 12035 [2]; [11]): 8 µg/mL
- Peptide MIC during treatment with erythromycin (MDRAB 12035 [2]; [12]): 8 µg/mL
- Peptide MIC during treatment with erythromycin (MDRAB 12035 [2]; [13]): 4 µg/mL
- Peptide MIC during treatment with erythromycin (MDRAB 12035 [2]; [14]): 0 µg/mL
- Peptide MIC during treatment with linezolid (MDRAB 12035 [2]; [7]): 4 µg/mL
- Peptide MIC during treatment with linezolid (MDRAB 12035 [2]; [8]): 0 µg/mL
- Peptide MIC during treatment with linezolid (MDRAB 12035 [2]; linezolid […] (Conc./MIC 1/2)): 1 µg/mL
- Peptide MIC during treatment with linezolid (MDRAB 12035 [2]; linezolid […] (Conc./MIC 1/4)): 4 µg/mL
- Peptide MIC during treatment with vancomycin (MDRAB 12035 [2]; [9]): 2 µg/mL
- Peptide MIC during treatment with vancomycin (MDRAB 12035 [2]; [10]): 1 µg/mL
- Peptide MIC during treatment with vancomycin (MDRAB 12035 [2]; vancomycin […] (Conc./MIC 1/4)): 4 µg/mL
- Peptide MIC during treatment with vancomycin (MDRAB 12035 [2]; vancomycin […] (Conc./MIC 1/8)): 4 µg/mL
